Results on seven molecules are retold here after patent US20240408085A1, “COMPOUND FOR DEGRADATION OF BCL-2 FAMILY PROTEINS AND MEDICAL APPLICATION THEREOF” (XIZANG HAISCO PHARMACEUTICAL CO., LTD., priority 2021, published 2024).

The test system of this test is MOLT-4 cells. The test is described as follows: Cell proliferation activity in MOLT-4 cells (72 h, cell viability luminescence). It is filed as cell-based, human. The note with it: Homo sapiens, read-out: IC50 for the inhibition of MOLT-4 cell proliferation. As for the experimental part: MOLT-4 cells are acute lymphoblastic leukemia cell lines in humans. The cells were purchased from ATCC. Culture conditions: RPMI-1640+10% FBS+1% penicillin-streptomycin solution. The cells were cultured in a 37° C., 5% CO2 incubator. The cells were plated in a 96-well plate, with 5×10^3 cells/well. After plating, compounds at different concentrations were added and cultured in a 37° C., 5% CO2 incubator for 72 h. After the completion of culture, a reagent (Promega, G7573) for detecting the cell viability was added. The mixture was uniformly mixed for 2 minutes and then incubated at room temperature for 10 minutes. The luminescence signal was detected with a multimode plate reader (BMG, PHERAstar FSX). The luminescence readings were processed using GraphPad Prism 8.0 software and the IC50 values of the compounds for the inhibition of cell proliferation and the maximum inhibition rate were calculated according to formula (2) and formula (3), respectively, wherein Tadministration denotes the cell signal readings obtained after incubation with the compounds for 72 h, and Tvehicle denotes the cell signal readings obtained after incubation with the vehicle control for 72 h.
Calculation of Max inhibition %: after the processing according to formula (2), the inhibition rate of the compounds at the highest concentration was calculated.
`Cc1ncsc1-c1ccc([C@H](C)NC(=O)[C@@H]2C[C@@H](O)CN2C(=O)[C@@H](NC(=O)CCCCCCC(=O)N2C[C@H]3CN(CC[C@H](CSc4ccccc4)Nc4ccc(S(=O)(=O)NC(=O)c5ccc(N6CCN(CC7=C(c8ccc(Cl)cc8F)CCC8(CC8)C7)CC6)cc5)cc4S(=O)(=O)C(F)(F)F)C[C@H]3C2)C(C)(C)C)cc1` [Compound 23, cis-(2S,4R)-1-((S)-2-(8-(5-((R)-3-((4-(N-(4-(4-((6-(4-chloro-2-fluorophenyl)spiro[2.5]oct-5-en-5-yl)methyl)piperazin-1-yl)benzoyl)sulfamoyl)-2-((trifluoromethyl)sulfonyl)phenyl)amino)-4-(phenylthio)butyl)hexahydropyrrolo[3,4-c]pyrrol-2(1H)-yl)-8-oxooctanamido)-3,3-dimethylbutanoyl)-4-hydroxy-N—((S)-1-(4-(4-methylthiazol-5-yl)phenyl)ethyl)pyrrolidine-2-carboxamide]: the IC50 was < 500 nM. Take `Cc1ncsc1-c1ccc([C@H](C)NC(=O)[C@@H]2C[C@@H](O)CN2C(=O)[C@@H](NC(=O)CCCCCC(=O)N2CCN(CC[C@H](CSc3ccccc3)Nc3ccc(S(=O)(=O)NC(=O)c4ccc(N5CCN(CC6=C(c7ccc(Cl)cc7)CCOC6)CC5)cc4)cc3S(=O)(=O)C(F)(F)F)CC2)C(C)(C)C)cc1` [Compound 5, (2S,4R)-1-((S)-2-(7-(4-((R)-3-((4-(N-(4-(4-((4-(4-chlorophenyl)-5,6-dihydro-2H-pyran-3-yl)methyl)piperazin-1-yl)benzoyl)sulfamoyl)-2-((trifluoromethyl)sulfonyl)phenyl)amino)-4-(phenylthio)butyl)piperazin-1-yl)-7-oxoheptanamido)-3,3-dimethylbutanoyl)-4-hydroxy-N—((S)-1-(4-(4-methylthiazol-5-yl)phenyl)ethyl)pyrrolidine-2-carboxamide]: the IC50 is < 500 nM. The same measure for `Cc1ncsc1-c1ccc([C@H](C)NC(=O)[C@@H]2C[C@@H](O)CN2C(=O)[C@@H](NC(=O)CCCCCCC(=O)N2C[C@@H]3C[C@H]2CN3CC[C@H](CSc2ccccc2)Nc2ccc(S(=O)(=O)NC(=O)c3ccc(N4CCN(CC5=C(c6ccc(Cl)cc6)CCC(C)(C)C5)CC4)cc3)cc2S(=O)(=O)C(F)(F)F)C(C)(C)C)cc1` [Compound 25, (2S,4R)-1-((S)-2-(8-((1S,4S)-5-((R)-3-((4-(N-(4-(4-((4′-chloro-4,4-dimethyl-3,4,5,6-tetrahydro-[1,1′-biphenyl]-2-yl)methyl)piperazin-1-yl)benzoyl)sulfamoyl)-2-((trifluoromethyl)sulfonyl)phenyl)amino)-4-(phenylthio)butyl)-2,5-diazabicyclo[2.2.1]heptan-2-yl)-8-oxooctanamido)-3,3-dimethylbutanoyl)-4-hydroxy-N—((S)-1-(4-(4-methylthiazol-5-yl)phenyl)ethyl)pyrrolidine-2-carboxamide]: < 500 nM.

On to `Cc1ncsc1-c1ccc([C@H](C)NC(=O)[C@@H]2C[C@@H](O)CN2C(=O)[C@@H](NC(=O)CCCCCC(=O)N2C[C@H]3CN(CC[C@H](CSc4ccccc4)Nc4ccc(S(=O)(=O)NC(=O)c5ccc(N6CCN(CC7=C(c8ccc(Cl)cc8F)CCCCC7)CC6)cc5)cc4S(=O)(=O)C(F)(F)F)C[C@H]3C2)C(C)(C)C)cc1` [Compound 39, cis-(2S,4R)-1-((S)-2-(7-(5-((R)-3-((4-(N-(4-(4-((2-(4-chloro-2-fluorophenyl)cyclohept-1-en-1-yl)methyl)piperazin-1-yl)benzoyl)sulfamoyl)-2-((trifluoromethyl)sulfonyl)phenyl)amino)-4-(phenylthio)butyl)hexahydropyrrolo[3,4-c]pyrrol-2(1H)-yl)-7-oxoheptanamido)-3,3-dimethylbutanoyl)-4-hydroxy-N—((S)-1-(4-(4-methylthiazol-5-yl)phenyl)ethyl)pyrrolidine-2-carboxamide], for which the IC50 was < 500 nM. In the case of `Cc1ncsc1-c1ccc([C@H](C)NC(=O)[C@@H]2C[C@@H](O)CN2C(=O)[C@@H](NC(=O)CCCCCC(=O)N2CCN(CC[C@H](CSc3ccccc3)Nc3ccc(S(=O)(=O)NC(=O)c4ccc(N5CCN(CC6=C(c7ccc(Cl)cc7F)CCC(C)(C)C6)CC5)cc4)cc3S(=O)(=O)C(F)(F)F)CC2)C(C)(C)C)cc1` [Compound 12, (2S,4R)-1-((S)-2-(7-(4-((R)-3-((4-(N-(4-(4-((4′-chloro-2′-fluoro-4,4-dimethyl-3,4,5,6-tetrahydro-[1,1′-biphenyl]-2-yl)methyl)piperazin-1-yl)benzoyl)sulfamoyl)-2-((trifluoromethyl)sulfonyl)phenyl)amino)-4-(phenylthio)butyl)piperazin-1-yl)-7-oxoheptanamido)-3,3-dimethylbutanoyl)-4-hydroxy-N—((S)-1-(4-(4-methylthiazol-5-yl)phenyl)ethyl)pyrrolidine-2-carboxamide], the IC50 is < 500 nM. The figure for `Cc1ncsc1-c1ccc([C@H](C)NC(=O)[C@@H]2C[C@@H](O)CN2C(=O)[C@@H](NC(=O)CCCCCCC(=O)N2C[C@@H]3C[C@H]2CN3CC[C@H](CSc2ccccc2)Nc2ccc(S(=O)(=O)NC(=O)c3ccc(N4CCN(CC5=C(c6ccc(Cl)cc6)CCCCC5)CC4)cc3)cc2S(=O)(=O)C(F)(F)F)C(C)(C)C)cc1` [Compound 34, (2S,4R)-1-((S)-2-(8-((1S,4S)-5-((R)-3-((4-(N-(4-(4-((2-(4-chlorophenyl)cyclohept-1-en-1-yl)methyl)piperazin-1-yl)benzoyl)sulfamoyl)-2-((trifluoromethyl)sulfonyl)phenyl)amino)-4-(phenylthio)butyl)-2,5-diazabicyclo[2.2.1]heptan-2-yl)-8-oxooctanamido)-3,3-dimethylbutanoyl)-4-hydroxy-N—((S)-1-(4-(4-methylthiazol-5-yl)phenyl)ethyl)pyrrolidine-2-carboxamide] is < 500 nM. The same measure for `Cc1ncsc1-c1ccc([C@H](C)NC(=O)[C@@H]2C[C@@H](O)CN2C(=O)[C@@H](NC(=O)CCCCCCCC(=O)N2C[C@H]3CN(CC[C@H](CSc4ccccc4)Nc4ccc(S(=O)(=O)NC(=O)c5ccc(N6CCN(CC7=C(c8ccc(Cl)cc8)CCC(C)(C)C7)CC6)cc5)cc4S(=O)(=O)C(F)(F)F)C[C@H]3C2)C(C)(C)C)cc1` [Compound 16, cis-(2S,4R)-1-((S)-2-(9-(5-((R)-3-((4-(N-(4-(4-((4′-chloro-4,4-dimethyl-3,4,5,6-tetrahydro-[1,1′-biphenyl]-2-yl)methyl)piperazin-1-yl)benzoyl)sulfamoyl)-2-((trifluoromethyl)sulfonyl)phenyl)amino)-4-(phenylthio)butyl)hexahydropyrrolo[3,4-c]pyrrol-2(1H)-yl)-9-oxononanamido)-3,3-dimethylbutanoyl)-4-hydroxy-N—((S)-1-(4-(4-methylthiazol-5-yl)phenyl)ethyl)pyrrolidine-2-carboxamide]: < 500 nM.
